Assays:
Format in all cases: in vivo
[1] = tested on: rats with experimental arthritis; test: Primary connective tissue metabolites in blood serum, rat model of systemic steroid (dexamethasone) arthritis; conditions: Day 56, daily i.m. 4 weeks, 50 mg/kg
Description: Example 2. A study of the chondroprotective activity of a composition comprising peptides Lys-Asp-Glu, Ala-Asp-Glu, Asp-Glu-Gly, and an agent comprising peptides Lys-Asp-Glu, Ala-Asp-Glu, Asp-Glu-Gly and chondroitin sulfate and/or glucosamine sulfate using a rat-based model of systemic steroid arthritis.
Lyophilized powder consisting of peptides Lys-Asp-Glu, Ala-Asp-Glu, Asp-Glu-Gly was used to obtain the preparation for intramuscular injections.
The daily dose of the composition comprising peptides Lys-Asp-Glu, Ala-Asp-Glu, Asp-Glu-Gly was 50 µg/kg (at a weight ratio of the peptides of 1:1:1), 150 µg/kg (at a weight ratio of the peptides of 1:2:1), 300 µg/kg (at a weight ratio of the peptides of 0.1:1:10) or 600 µg/kg (at a weight ratio of the peptides of 1:1:3).
The daily dose of the composition comprising peptides Lys-Asp-Glu, Ala-Asp-Glu, Asp-Glu-Gly and glucosamine sulfate or chondroitin sulfate was 150 µg/kg of the peptides (at a weight ratio of the peptides of 1:2:1) and 50 mg/kg of glucosamine sulfate or chondroitin sulfate, or 300 µg/kg of the peptides (at a weight ratio of the peptides of 0.1:1:10) and 50 mg/kg of glucosamine sulfate or chondroitin sulfate, or 600 µg/kg of the peptides (at a weight ratio of the peptides of 1:1:3) and 50 mg/kg of glucosamine sulfate or chondroitin sulfate. […]
The study was conducted using white outbred male rats 4-5 months of age weighing 250-300 g obtained from the same litter (same age and weight, with normal primary clinical and biochemical analyses parameters). […] The first signs of the arthropathy were detected as early as week 2 of the experiment.
Starting from day 28 of the experiment, all animals received corresponding intramuscular doses of the preparations on a daily basis over 4 weeks. The degree of activity of the pathological process was evaluated using biochemical blood test parameters. […]
Clinical observation of the animals was implemented throughout the study; the functional state of the rat joints was monitored (degree of mobility, resistance to stress, swelling, hyperaemia). […]

[2] = tested on: articular cartilages of the knee joints of the rats; test: Histomorphological and morphometric study of the articular cartilages of the knee joints (light microscopy, scoring system)
Method: The study was conducted using white outbred male rats 4-5 months of age weighing 250-300 g obtained from the same litter (same age and weight, with normal primary clinical and biochemical analyses parameters). Modeling of steroid arthritis was achieved by three single intramuscular injections of dexamethasone administered at an interval of 1 week at a dose of 7 mg/kg. The first signs of the arthropathy were detected as early as week 2 of the experiment.
Starting from day 28 of the experiment, all animals received corresponding intramuscular doses of the preparations on a daily basis over 4 weeks. The degree of activity of the pathological process was evaluated using biochemical blood test parameters. The following biochemical parameters were used as the parameters for evaluation of the intensity of progression of the pathological process in the experimental groups: the contents of sialic acids, glycoproteins, and chondroitin sulfates in the serum, as these parameters reflect the intensity of progression of the degenerative-dystrophic processes in the connective tissue.
Clinical observation of the animals was implemented throughout the study; the functional state of the rat joints was monitored (degree of mobility, resistance to stress, swelling, hyperaemia). The animals were decapitated under ether anesthesia at the end of the study (on day 56) to harvest biomaterials for biochemical and histomorphological studies.
In order to investigate the chondroprotective activity of the composition, a study of the condition of the morpho- and ultrastructure of the articular cartilages of the knee joints of the rats was carried out on day 56 of the experiment.
The histomorphological investigation of the articular cartilages was carried out using standard light microscopy techniques.
The morphometric measurements were carried out using an ocular micrometer: the cartilage thickness was determined using slide mounts; the measurements were taken at 3 individual points - the central part of the head, and the upper and lower edges. The thickness of the articular cartilages was expressed in conventional units. The density of chondrocytes per conventional unit area was also estimated. Statistical processing of the digital data obtained was performed using Student's t-test and non-parametric methods of analysis (Mann-Whitney U Test). […]

[3] = tested on: articular cartilages of rats with experimental arthritis; test: Electron microscopic study of the ultrastructure of the articular cartilages; conditions: 50 mg/kg
Method: The study of the ultrastructure of the articular cartilages of the rats was performed using conventional electron microscopy techniques.

[4] = tested on: patients with degenerative-dystrophic diseases of the joints; test: Clinical administration to patients with joint disease (first group); conditions: 500 mg, tablets twice a day three weeks then once daily
Method: (§1) Example 3. Administration of the peptide composition and the peptide composition in combination with glucosamine sulfate and/or chondroitin sulfate to patients with degenerative-dystrophic diseases of the joints and the spine.
(§2) The studies were carried out in a group patients aged 40 - 65 years.
The first group (50 patients) was characterized by stiffness in the joints, as well as puffiness or swelling in the joints, which was manifested in the appearance of pain of varying intensity and duration.
A total of 15 patients in the first group were exposed to the peptide composition administered at a dose of 150 µg; 7 patients received glucosamine sulfate at a dose of 500 mg; 10 patients were treated with the composition of the peptides administered at a dose of 150 µg, glucosamine sulfate at a dose of 500 mg, and chondroitin sulfate at a dose of 50 mg; and 18 patients received the composition of the peptides administered at a dose of 150 µg and glucosamine sulfate at a dose of 500 mg in the form of tablets twice a day over the first three weeks and then once daily for up to 6 months. A sustained therapeutic effect associated with administration of glucosamine sulfate was achieved after at least 6 months of therapy. […]

[5] = tested on: patients with degenerative process occurring in the intervertebral joints and intervertebral discs; test: Clinical administration to patients with degenerative process of the spine (second group); conditions: 50 mg intramuscularly daily, 30 injections
Method: as §1, §2
The second group (30 patients) was characterized by the degenerative process occurring in the intervertebral joints and intervertebral discs accompanied by deformation of the intervertebral discs and formation of osteophytes, which was manifested in the appearance of pain of varying intensity and duration.
A total of 10 patients in the second group received the peptide composition at a dose of 300 µg; 9 patients received glucosamine sulfate at a dose of 50 mg; and 11 patients received the composition of the peptides at a dose of 300 µg and glucosamine sulfate at a dose of 50 mg administered intramuscularly on a daily basis. The treatment course comprised 30 injections. A therapeutic effect associated with administration of glucosamine sulfate was achieved after at least 1 month of therapy. […]

With `N[C@H]1C(O)O[C@H](CO)[C@@H](O)[C@@H]1O.O=S(=O)(O)O` (stereo partly shown) [Glucosamine sulfate] the Chondroitin sulfate [1] was 0.400 ± 0.027 g/L, the Glycoproteins [1] was 3.59 ± 0.29 g/L and the Sialic acids [1] was 4.27 ± 0.34 mmol/L. The “morphology of the joints (slide mounts)” value ([2]; 50 mg/kg) was “improvement of the morphology in comparison to the control pathology animal group”, the Cartilage thickness ([2]; day 56, 50 mg/kg) was 14.10±1.06 conventional units and the “Cell density per conventional unit area” value ([2]; day 56, 50 mg/kg) was 23.79±1.80. The “Total score according to the cartilage condition evaluation system” value ([2]; day 56, 50 mg/kg) was 16.2±1.3, the “ultrastructure of the cartilages” value [3] was “normalization of the ultrastructure of the cartilages accompanied by moderate degenerative-dystrophic manifestations in chondrocytes” and the “therapy duration until sustained therapeutic effect” value [4] was “at least 6 months”. For the same compound, the “therapy duration until therapeutic effect” value [5] was “at least 1 month”.

— EP3189848B1, “A COMPOSITION COMPRISING TRIPEPTIDES FOR THE TREATMENT OF DISEASES OF THE JOINTS AND THE SPINE” (Zamerton Holdings Limited, priority 2014, dated 2016)
